Measured values as given in the supplement of paper PMC10307832.

Tests used:
Test in all cases: relative viability (nuclei count vs DMSO), 5 days (fraction); higher = more cells survive
NCI-H647 = system: NCI-H647
Method in brief: (§1)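 A single step with final 0.05% Triton X-100, 1% formaldehyde and 1 ug/ml Hoechst fixed the cells and stained nuclei 5 days after treatment. Lung cancer cell lines in 1536-well plates had been treated by pin tool the day after seeding with one drug alone or a fixed anchor-drug dose plus five library-drug doses (not always all listed) in √10 steps, and nuclei were counted on 4× images. Relative viability is the ratio of nuclei in treated wells to nuclei in vehicle wells, taken as the median of duplicate plates.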

HOP-62 = system: HOP-62
Method in brief: as §1

COR-L23 = system: COR-L23
Method in brief: as §1

LC-2-ad = system: LC-2-ad
Method in brief: as §1

NCI-H1395 = system: NCI-H1395
Method in brief: as §1

NCI-H1666 = system: NCI-H1666
Method in brief: as §1

NCI-H2170 = system: NCI-H2170
Method in brief: as §1

CAL-12T = system: CAL-12T
Method in brief: as §1

LCLC-103H = system: LCLC-103H
Method in brief: as §1

NCI-H2228 = system: NCI-H2228
Method in brief: as §1

NCI-H1651 = system: NCI-H1651
Method in brief: as §1

ABC-1 = system: ABC-1
Method in brief: as §1

NCI-H2085 = system: NCI-H2085
Method in brief: as §1

NCI-H661 = system: NCI-H661
Method in brief: as §1

NCI-H1993 = system: NCI-H1993
Method in brief: as §1

NCI-H23 = system: NCI-H23
Method in brief: as §1

NCI-H520 = system: NCI-H520
Method in brief: as §1

201T = system: 201T
Method in brief: as §1

NCI-H2347 = system: NCI-H2347
Method in brief: as §1

NCI-H838 = system: NCI-H838
Method in brief: as §1

NCI-H1355 = system: NCI-H1355
Method in brief: as §1

HCC-44 = system: HCC-44
Method in brief: as §1

NCI-H322M = system: NCI-H322M
Method in brief: as §1

SMILES: O=C(O)CCCCC(CCSCc1ccccc1)SCc1ccccc1 (stereo not given) [CPI-613] + N=C(N)NC(=N)NCCc1ccccc1 [Phenformin] (partner 250 µM)
- relative viability (NCI-H647; first compound 5 µM): 0.575
- relative viability (NCI-H647; first compound 15.81 µM): 0.408
- relative viability (NCI-H647; first compound 50 µM): 0.501
- relative viability (NCI-H647; first compound 158.11 µM): 0.108
- relative viability (NCI-H647; first compound 500 µM): 0.0098
- relative viability (HOP-62; first compound 5 µM): 0.67
- relative viability (HOP-62; first compound 15.81 µM): 0.632
- relative viability (HOP-62; first compound 50 µM): 0.62
- relative viability (HOP-62; first compound 158.11 µM): 0.437
- relative viability (HOP-62; first compound 500 µM): 0.204
- relative viability (COR-L23; first compound 5 µM): 0.438
- relative viability (COR-L23; first compound 15.81 µM): 0.393
- relative viability (COR-L23; first compound 50 µM): 0.475
- relative viability (COR-L23; first compound 158.11 µM): 0.199
- relative viability (COR-L23; first compound 500 µM): 0.0157
- relative viability (LC-2-ad; first compound 5 µM): 0.569
- relative viability (LC-2-ad; first compound 15.81 µM): 0.558
- relative viability (LC-2-ad; first compound 50 µM): 0.567
- relative viability (LC-2-ad; first compound 158.11 µM): 0.396
- relative viability (LC-2-ad; first compound 500 µM): 0.0712
- relative viability (NCI-H1395; first compound 5 µM): 0.419
- relative viability (NCI-H1395; first compound 15.81 µM): 0.427
- relative viability (NCI-H1395; first compound 50 µM): 0.433
- relative viability (NCI-H1395; first compound 158.11 µM): 0.457
- relative viability (NCI-H1395; first compound 500 µM): 0.397
- relative viability (NCI-H1666; first compound 5 µM): 0.56
- relative viability (NCI-H1666; first compound 15.81 µM): 0.539
- relative viability (NCI-H1666; first compound 50 µM): 0.534
- relative viability (NCI-H1666; first compound 158.11 µM): 0.26
- relative viability (NCI-H1666; first compound 500 µM): 0.251
- relative viability (NCI-H2170; first compound 5 µM): 0.435
- relative viability (NCI-H2170; first compound 15.81 µM): 0.404
- relative viability (NCI-H2170; first compound 50 µM): 0.38
- relative viability (NCI-H2170; first compound 158.11 µM): 0.352
- relative viability (NCI-H2170; first compound 500 µM): 0.11
- relative viability (CAL-12T; first compound 5 µM): 0.538
- relative viability (CAL-12T; first compound 15.81 µM): 0.546
- relative viability (CAL-12T; first compound 50 µM): 0.464
- relative viability (CAL-12T; first compound 158.11 µM): 0.0459
- relative viability (CAL-12T; first compound 500 µM): 0.0085
- relative viability (LCLC-103H; first compound 5 µM): 0.322
- relative viability (LCLC-103H; first compound 15.81 µM): 0.297
- relative viability (LCLC-103H; first compound 50 µM): 0.377
- relative viability (LCLC-103H; first compound 158.11 µM): 0.294
- relative viability (LCLC-103H; first compound 500 µM): 0.278
- relative viability (NCI-H2228; first compound 5 µM): 0.344
- relative viability (NCI-H2228; first compound 15.81 µM): 0.33
- relative viability (NCI-H2228; first compound 50 µM): 0.222
- relative viability (NCI-H2228; first compound 158.11 µM): 0.208
- relative viability (NCI-H2228; first compound 500 µM): 0.0339
- relative viability (NCI-H1651; first compound 5 µM): 0.326
- relative viability (NCI-H1651; first compound 15.81 µM): 0.316
- relative viability (NCI-H1651; first compound 50 µM): 0.303
- relative viability (NCI-H1651; first compound 158.11 µM): 0.166
- relative viability (NCI-H1651; first compound 500 µM): 0.126
- relative viability (ABC-1; first compound 5 µM): 0.22
- relative viability (ABC-1; first compound 15.81 µM): 0.211
- relative viability (ABC-1; first compound 50 µM): 0.247
- relative viability (ABC-1; first compound 158.11 µM): 0.146
- relative viability (ABC-1; first compound 500 µM): 0.192
- relative viability (NCI-H2085; first compound 5 µM): 0.814
- relative viability (NCI-H2085; first compound 15.81 µM): 0.62
- relative viability (NCI-H2085; first compound 50 µM): 0.701
- relative viability (NCI-H2085; first compound 158.11 µM): 0.295
- relative viability (NCI-H2085; first compound 500 µM): 0.0903
- relative viability (NCI-H661; first compound 5 µM): 0.291
- relative viability (NCI-H661; first compound 15.81 µM): 0.235
- relative viability (NCI-H661; first compound 50 µM): 0.304
- relative viability (NCI-H661; first compound 158.11 µM): 0.214
- relative viability (NCI-H661; first compound 500 µM): 0.113
- relative viability (NCI-H1993; first compound 5 µM): 0.492
- relative viability (NCI-H1993; first compound 15.81 µM): 0.532
- relative viability (NCI-H1993; first compound 50 µM): 0.492
- relative viability (NCI-H1993; first compound 158.11 µM): 0.473
- relative viability (NCI-H1993; first compound 500 µM): 0.42
- relative viability (NCI-H23; first compound 5 µM): 0.819
- relative viability (NCI-H23; first compound 15.81 µM): 0.746
- relative viability (NCI-H23; first compound 50 µM): 0.803
- relative viability (NCI-H23; first compound 158.11 µM): 0.358
- relative viability (NCI-H23; first compound 500 µM): 0.0072
- relative viability (NCI-H520; first compound 5 µM): 0.667
- relative viability (NCI-H520; first compound 15.81 µM): 0.433
- relative viability (NCI-H520; first compound 50 µM): 0.634
- relative viability (NCI-H520; first compound 158.11 µM): 0.446
- relative viability (NCI-H520; first compound 500 µM): 0.35
- relative viability (201T; first compound 5 µM): 0.514
- relative viability (201T; first compound 15.81 µM): 0.432
- relative viability (201T; first compound 50 µM): 0.415
- relative viability (201T; first compound 158.11 µM): 0.36
- relative viability (201T; first compound 500 µM): 0.0726
- relative viability (NCI-H2347; first compound 5 µM): 0.441
- relative viability (NCI-H2347; first compound 15.81 µM): 0.352
- relative viability (NCI-H2347; first compound 50 µM): 0.461
- relative viability (NCI-H2347; first compound 158.11 µM): 0.471
- relative viability (NCI-H2347; first compound 500 µM): 0.378
- relative viability (NCI-H838; first compound 5 µM): 0.586
- relative viability (NCI-H838; first compound 15.81 µM): 0.481
- relative viability (NCI-H838; first compound 50 µM): 0.558
- relative viability (NCI-H838; first compound 158.11 µM): 0.261
- relative viability (NCI-H838; first compound 500 µM): 0.0688
- relative viability (NCI-H1355; first compound 5 µM): 0.423
- relative viability (NCI-H1355; first compound 15.81 µM): 0.412
- relative viability (NCI-H1355; first compound 50 µM): 0.411
- relative viability (NCI-H1355; first compound 158.11 µM): 0.347
- relative viability (NCI-H1355; first compound 500 µM): 0.105
- relative viability (HCC-44; first compound 5 µM): 0.15
- relative viability (HCC-44; first compound 15.81 µM): 0.195
- relative viability (HCC-44; first compound 50 µM): 0.185
- relative viability (HCC-44; first compound 158.11 µM): 0.268
- relative viability (HCC-44; first compound 500 µM): 0.248
- relative viability (NCI-H322M; first compound 5 µM): 0.76
- relative viability (NCI-H322M; first compound 15.81 µM): 0.718
- relative viability (NCI-H322M; first compound 50 µM): 0.728
- relative viability (NCI-H322M; first compound 158.11 µM): 0.693
- relative viability (NCI-H322M; first compound 500 µM): 0.0264
